Assay results taken from patent US20090075949A1, “Use of dipyridamole in combination with antithrombotics for treatment and prevention of thromboembolic diseases” (priority 2004, published 2009).

Assays:
[1] = ESPS-2; compared with low-dose aspirin / aspirin alone; cited from earlier work
[2] = local formation of fibrin in experimental animals after angioplasty; assay type: in vivo
activated platelets = experiment: Annexin V binding after incubation of cells with DIP; assay type: cell-based
[3] = arterial circulation of the brain, rabbit model; cited from earlier work

OCCN(CCO)c1nc(N2CCCCC2)c2nc(N(CCO)CCO)nc(N3CCCCC3)c2n1 [dipyridamole, 2,6-bis(diethanolamino)-4,8-dipiperidino-pyrimido[5,4-d]pyrimidine]
reduction of stroke risk [1]: as effective as low-dose aspirin | inhibition of fibrin formation versus full dose heparin ([2]; experimental animals after angioplasty): exceeds the level of inhibition by full dose anticoagulant treatment with heparin | local formation of fibrin ([2]; pretreatment, arterial tree, high flow rate): reduces the local formation of fibrin significantly | binding of Annexin V to the surface of activated platelets (activated platelets; activated platelets): reduce the binding of Annexin V | Annexin V binding sites (activated platelets; incubation of cells, compared to pre-incubation, patients with anti-platelet therapy resistance (ASA or clopidogrel)): significant reduction | thrombus formation [3]: reduce thrombus formation
